Data on 4 compounds can be found in patent publication US4389403A, “1-Aroyl-2-phenylamino-2-imidazolines, drugs containing these compounds, and use thereof” (BASF Aktiengesellschaft, priority 1980, dated 1983).

Data set [1] has as its system spontaneously hypertonic Okamoto rats (SH rats). Description: Anti-hypertensive action, systolic blood pressure in spontaneously hypertonic rats, oral. It counts as in vivo, rat (male spontaneously hypertonic Okamoto rats). The following applies: oral administration; for ED20: Rattus norvegicus, dose lowering systolic pressure by 20%, 2 h after administration, read-out: Anti-hypertensive effect ED 20%; for Anti-hypertensive effect R.E. (relative effectiveness): relative to clonidine = 1.00. How it is done: The compounds are administered orally to groups of 4-8 male spontaneously hypertonic Okamoto rats (SH rats). Before, and two hours after, the administration, the systolic blood pressure is measured on the tail of the rat by means of a piezoelectric sensor.
The ED 20% is determined, from the dose-effect relationship and taking into account the values found with untreated control animals, as the dose which lowers the systolic pressure by 20%.

Another data set is described as follows: Acute toxicity (LD 50). To be noted: rat, in vivo, po. How it is done: To determine the acute toxicity (LD 50), the compounds are administered orally to groups of 10 male Sprague-Dawley rats each weighing 150-320 g. The period of observation is 1 week.
The conditions of data set [2]: German Published Application DAS No. 2,559,711; cited from earlier work.
The nature of data set [3]: Narcosis-prolonging action in rats (chloral hydrate narcosis), sedative action. To be noted: rat, in vivo, po.
Protocol: (§1) The time at which the righting reflex ceases to function is measured.
(§2) The reference substances were the conventional anti-hypertensive agents clonidine and benclonidine.
(§3) An undesired side-effect of clonidine is the central-suppressive (sedative) action, which was tested using, as a model, the prolongation of chloral hydrate narcosis.
Data set [4] deals with chloral hydrate narcosis in Sprague-Dawley rats. The description is as above. To be noted: for Narcosis-prolonging effect R.E. (relative effectiveness): rats, oral administration, relative to clonidine = 1.00.
Protocol: as §1, §2, §3
The conditions of data set [5]: compared with clonidine; DAS No. 2,559,711; cited from earlier work.
For data set [6] the following is noted: DAS No. 2,559,711; cited from earlier work.

Regarding `Clc1cccc(Cl)c1NC1=NCCN1` [Clonidine, 2-(2',6'-dichlorophenylamino)-2-imidazoline], in data set [1], the ED20 came to 0.0829 mg/kg and the “Anti-hypertensive effect R.E. (relative effectiveness)” value was 1.00. Further, the LD50 at 168 h in “Acute toxicity (LD 50)” amounted to 67.3 mg/kg. Also, the “blood pressure-reducing properties” value in data set [2] is “exhibits blood pressure-reducing properties”. In data set [3], the ED50 is 0.0565 mg/kg and the selectivity ratio turned out to be 0.68. Moreover, the “Narcosis-prolonging effect R.E. (relative effectiveness)” value in data set [4] was found to be 1.00.

On to `O=C(c1cccnc1)N1CCN=C1Nc1c(Cl)cccc1Cl` [Example 1, 1-nicotinoyl-2-(2',6'-dichlorophenylamino)-2-imidazoline], for which, in data set [1], the ED20 was 0.0786 mg/kg and the “Anti-hypertensive effect R.E. (relative effectiveness)” value came to 1.05. Also, the LD50 at 168 h in “Acute toxicity (LD 50)” is 80 mg/kg. In data set [3], the 50% effect level (ED50) was put at a dose of 0.1 mg/kg and the selectivity ratio came out at 1.27. The “Narcosis-prolonging effect R.E. (relative effectiveness)” value in data set [4] is 0.57.

`O=C(c1ccccc1)N1CCN=C1Nc1c(Cl)cccc1Cl` [Benclonidine, 1-benzoyl-2-(2',6'-dichlorophenylamino)-2-imidazoline]: in data set [1], the ED20 is 0.836 mg/kg and the “Anti-hypertensive effect R.E. (relative effectiveness)” value is on record as 0.10. Moreover, in the data set “Acute toxicity (LD 50)”, the LD50 at 168 h worked out at 68.1 mg/kg. In data set [2], the “blood pressure-reducing properties” value is reported as “exhibits blood pressure-reducing properties”. Further, in data set [5], the “sedative side-effects” value is “lesser sedative side-effects than the parent compound clonidine”. Moreover, the “absorption on oral administration” value in data set [6] is given as “efficiently absorbed on oral administration”. Moreover, in data set [3], the ED50 is 0.948 mg/kg and the selectivity ratio worked out at 1.13. For the same compound, the “Narcosis-prolonging effect R.E. (relative effectiveness)” value in data set [4] is 0.06.

As for `O=C(c1ccc2ccccc2n1)N1CCN=C1Nc1c(Cl)cccc1Cl` [Example 45, 1-(quinolin-2-oyl)-2-(2',6'-dichlorophenylamino)-2-imidazoline], in data set [1], the ED20 was determined as 0.0856 mg/kg and the “Anti-hypertensive effect R.E. (relative effectiveness)” value is listed as 0.97. For the same compound, the LD50 at 168 h in the data set “Acute toxicity (LD 50)” was 44 mg/kg. For the same compound, in data set [3], the ED50 was determined as 0.464 mg/kg and the selectivity ratio worked out at 5.42. Also, in data set [4] (compared with clonidine or benclonidine), the “ratio of sedative to anti-hypertensive doses compared with clonidine or benclonidine” value is “substantially more advantageous”. Also, in data set [4], the “Narcosis-prolonging effect R.E. (relative effectiveness)” value was determined as 0.12.
